Assay results: PubChem BioAssay AID330 (DTP/NCI, 2004)
“And” between values parts separate entries of the source, which are not always exact repeats. Equal values may be shown once. Inconclusive results and toxic doses are left out. The calls were made as follows: active = survival T/C of 150% or more; inactive = T/C below 125% in these data.

System: P388 leukemia ip, CD2F1 mice, survival T/C
Experiment: NCI In Vivo Anticancer Drug Screen. Data for tumor model P388 Leukemia (intraperitoneal) in CD2F1 (CDF1) mice
Conditions: endpoint: median survival time, higher = longer survival
Summary of the method: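 Mice carrying the transplanted tumor received test compound or vehicle. Survival was recorded in each group, and the value is the treated-group measurement divided by that of the vehicle-treated control group.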

[1] = dose: 100.0 mg/kg/injection, schedule: Q01DX009 (ip), vehicle: saline
[2] = dose: 50.0 mg/kg/injection, schedule: Q01DX009 (ip), vehicle: saline with Tween-80
[3] = dose: 50.0 mg/kg/injection, schedule: Q01DX005 (ip), vehicle: Klucel (hydroxypropylcellulose) (HPC)
[4] = dose: 50.0 mg/kg/injection, schedule: Q01DX009 (ip), vehicle: Klucel (hydroxypropylcellulose) (HPC)
[5] = dose: 100.0 mg/kg/injection, schedule: Q01DX009 (ip), vehicle: Klucel (hydroxypropylcellulose) (HPC)
[6] = dose: 200.0 mg/kg/injection, schedule: Q01DX009 (ip), vehicle: Klucel (hydroxypropylcellulose) (HPC)

Measured: T/C

Cc1nc2nc(=S)[nH]c(N)c2nc1C
inactive: dose: 12.5 mg/kg/injection, schedule: Q01DX009 (ip), vehicle: saline 103 % of control | dose: 25.0 mg/kg/injection, schedule: Q01DX009 (ip), vehicle: saline 95 % of control | dose: 50.0 mg/kg/injection, schedule: Q01DX009 (ip), vehicle: saline 95 % of control | [1] 100 % of control

CCN(CC)CCNc1ncnc(N)c1C(=C(C)C)c1ccc(Cl)cc1
inactive: [2] 87 % of control

ClC1=CN(C2=NCCC2)CC1
inactive: dose: 6.25 mg/kg/injection, schedule: Q01DX009 (ip), vehicle: saline with Tween-80 101 % of control | dose: 12.5 mg/kg/injection, schedule: Q01DX009 (ip), vehicle: saline with Tween-80 103 % of control | dose: 25.0 mg/kg/injection, schedule: Q01DX009 (ip), vehicle: saline with Tween-80 97 % of control

Nc1nc(C[P+](c2ccccc2)(c2ccccc2)c2ccccc2)c(CCCCc2ccccc2)c(=O)[nH]1
inactive: dose: 12.5 mg/kg/injection, schedule: Q01DX005 (ip), vehicle: Klucel (hydroxypropylcellulose) (HPC) 101 % of control | dose: 25.0 mg/kg/injection, schedule: Q01DX005 (ip), vehicle: Klucel (hydroxypropylcellulose) (HPC) 101 % of control | [3] 98 % of control and 99 % of control

Cc1ccc(S(=O)(=O)N/N=C\C(O)C(O)C(O)CO)cc1 (stereo not given)
inactive: [4] 114 % of control | [5] 106 % of control | [6] 107 % of control | dose: 400.0 mg/kg/injection, schedule: Q01DX009 (ip), vehicle: Klucel (hydroxypropylcellulose) (HPC) 104 % of control

COC(=O)c1c(OC)cc2cc3c(c(O)c2c1C)C(=O)C1(O)C(=O)C=C(OC)C(OC(=O)CC(C)N)=C1C3=O (stereo not given)
inactive: dose: 25.0 mg/kg/injection, schedule: Q01DX005 (ip), vehicle: water 103 % of control | dose: 50.0 mg/kg/injection, schedule: Q01DX005 (ip), vehicle: water 100 % of control | dose: 100.0 mg/kg/injection, schedule: Q01DX005 (ip), vehicle: water 104 % of control

CC12C=C3C4(CCCC3(O1)c1ccccc12)OCCO4 (stereo not given)
inactive: [2] 96 % of control | dose: 100.0 mg/kg/injection, schedule: Q01DX009 (ip), vehicle: saline with Tween-80 102 % of control | dose: 200.0 mg/kg/injection, schedule: Q01DX009 (ip), vehicle: saline with Tween-80 99 % of control

CSc1nc(N)c(C(N)=O)s1
inactive: [4] 100 % of control | [5] 103 % of control | [6] 109 % of control

NCCC(N)=O
inactive: [1] 100 % of control | dose: 100.0 mg/kg/injection, schedule: Q04DX003 (ip), vehicle: saline sonified 109 % of control | dose: 200.0 mg/kg/injection, schedule: Q01DX009 (ip), vehicle: saline 95 % of control | dose: 200.0 mg/kg/injection, schedule: Q04DX003 (ip), vehicle: saline sonified 100 % of control | dose: 400.0 mg/kg/injection, schedule: Q01DX009 (ip), vehicle: saline 100 % of control | dose: 400.0 mg/kg/injection, schedule: Q04DX003 (ip), vehicle: saline sonified 100 % of control

O=C(OC1CSC=CSC1)c1ccccc1
inactive: [4] 104 % of control | [5] 109 % of control | [6] 110 % of control

COc1ccc(NC(=O)C/C(C)=C2/C(=O)NN(c3ccccc3)C2=O)cc1
inactive: dose: 60.0 mg/kg/injection, schedule: Q01DX005 (ip), vehicle: saline with Tween-80 104 % of control | dose: 120.0 mg/kg/injection, schedule: Q01DX005 (ip), vehicle: saline with Tween-80 97 % of control | dose: 240.0 mg/kg/injection, schedule: Q01DX005 (ip), vehicle: saline with Tween-80 92 % of control

CCN(CC)C1=C(C)C(C(=O)OC)=C(C(=O)OC)C12c1ccccc1-c1ccccc12
inactive: dose: 60.0 mg/kg/injection, schedule: Q01DX005 (ip), vehicle: Klucel (hydroxypropylcellulose) (HPC) 92 % of control | dose: 120.0 mg/kg/injection, schedule: Q01DX005 (ip), vehicle: Klucel (hydroxypropylcellulose) (HPC) 92 % of control | dose: 240.0 mg/kg/injection, schedule: Q01DX005 (ip), vehicle: Klucel (hydroxypropylcellulose) (HPC) 86 % of control

Cc1nc(-c2ccccc2)nc2c1nc(Cc1ccc(Cl)cc1)n2Nc1ccccc1
inactive: [3] 95 % of control | dose: 100.0 mg/kg/injection, schedule: Q01DX005 (ip), vehicle: Klucel (hydroxypropylcellulose) (HPC) 91 % of control | dose: 200.0 mg/kg/injection, schedule: Q01DX005 (ip), vehicle: Klucel (hydroxypropylcellulose) (HPC) 88 % of control

Cc1nn(C(N)=S)c(C)c1N=Nc1cccc(Cl)c1Cl
inactive: dose: 100.0 mg/kg/injection, schedule: Q04DX002 (ip), vehicle: Klucel (hydroxypropylcellulose) (HPC) 100 % of control | dose: 200.0 mg/kg/injection, schedule: Q04DX002 (ip), vehicle: Klucel (hydroxypropylcellulose) (HPC) 96 % of control | dose: 400.0 mg/kg/injection, schedule: Q04DX002 (ip), vehicle: Klucel (hydroxypropylcellulose) (HPC) 92 % of control
